This is an account of results in patent publication US11365181B2, “P-phenylenediamine derivative as potassium channel regulator and preparation method and medical application thereof” (Shanghai Zhimeng Biopharma, Inc., priority 2018, dated 2022).

pEC50: −log10 of the molar value. Where two headings read alike, the source gives them in different places.

A short description of data set [1]: Pharmacokinetics of compounds 03043 and 03044 in male SD rats. It counts as in vivo. To be noted: for AUC(0-inf) / AUC(0-t) / Cmax / half-life / Tmax: rat, plasma. The source says:
(§1) Study on the Pharmacokinetics of Compounds 03043 and 03044
(§2) 1) Research purpose: To obtain the pharmacokinetic characteristics of compounds 03043 and 03044 in male SD rats and their blood-brain barrier (BBB) penetration
(§3) 15 healthy male SD rats (weight range of 200-250 g) were taken and divided into 3 groups, 3 rats were used for intravenous administration in group 1, 3 rats were used for oral administration in group 2, and 9 rats were used for the determination of cerebral blood ratio after oral administration in group 3 (3 rats/time point). Group 2 and group 3 were fasted for more than 12 hours. Intravenous: 1 mg/kg, oral 5 mg/kg, at time point 0.083 (only group 1), 0.25 (only groups 1 and 2), 0.5 (only groups 1 and 2), 1.2 (only groups 1 and 2). After 4, 8 and 24 h (only group 1 and group 2), blood was collected by jugular vein or cardiac puncture, and at least 0.3 mL of whole blood was collected into an EDTA-K2 anticoagulant tube. Within half an hour, the plasma was collected by centrifugation (6000 revolutions, 8 minutes, 4° C.), frozen at −20° C. for later use. At the same time, brain tissues were collected from group 3 (time points were 1, 4, and 8 h respectively), washed with normal saline, blotted dry with absorbent paper, weighed, and frozen at −20° C. for use. (Compound preparation: 5% DMAC+10% Solutol HS 15+85% Saline was used to prepare a solution having a concentration of iv 0.2 mg/mL and po 0.3 mg/mL).
(§4) Experimental results: According to the blood drug concentration data obtained, the non-compartmental model of WinNonlin® 7.0 software (Pharsight, USA) was used to calculate the pharmacokinetic parameters after administration.

Data set [2] is described as follows: Plasma and brain concentration / cerebral blood ratio (BBB penetration) in male SD rats after single oral administration. To be noted: rat; for concentration at 1 h / Kp at 1 h: 1 h after single oral administration 5 mg/kg; for concentration at 4 h / Kp at 4 h: 4 h after single oral administration 5 mg/kg; for concentration at 8 h / Kp at 8 h: 8 h after single oral administration 5 mg/kg; for Kp / Kp at 1 h / Kp at 4 h / Kp at 8 h: brain/plasma; for Kp: 5 mg/kg, at each time point (1, 4, 8 h), oral administration. Format: in vivo.
From the text: as §1, §2, §3

For data set [3], the target named is KCNQ2 potassium channel (CHO-KCNQ2 cells) (Homo sapiens (Human), UniProt O43526). As to the kind of experiment: Activity test of potassium ion channel opener (FDSS/μCELL detection, FluxOR potassium ion channel assay). Format: cell-based. To be noted: for increase of activity versus 6-membered ring comparison compound (ratio of EC50): 03043 vs compound A, 03058 vs compound B; for pEC50: CHO-KCNQ2 cells, FluxOR fluorescence, FDSS/μCELL. Here is the method:
Activity Test of Potassium Ion Channel Opener (FDSS/ρCELL Detection)
Cell preparation: CHO-KCNQ2 cells were cultured in a 175 cm^2 culture flask, and when the cells was grown to a density of 60-80%, the culture medium was removed, washed with 7 mL PBS (Phosphate Buffered Saline) once, then 3 mL 0.25% Trypsin was added to digest. After the digestion was completed, 7 mL culture medium (90% DMEM/F12+10% FBS+500 μg/mL G418) was added to neutralize, centrifugated for 3 minutes at 800 rpm. The supernatant was aspirated, then 5 mL culture medium was added to resuspend, and then the cells were counted.
Cell plating: The density to 3×10^4/well was adjusted according to the results of cell counting. After standing at room temperature for 30 minutes, the cells were placed in a 37° C. CO2 incubator and incubated overnight for 16-18 hours. The cell density reached about 80%.
Fluorescent dye incubation: The cell culture medium was discarded, 80 μL/well loading buffer was added, and the cells were incubated in dark at room temperature for 60 minutes.
Compound incubation: the loading buffer was discarded, 80 μL/well prepared compound solution was added, incubated at room temperature and in dark for 20 minutes.
Fluorescence data collection: FDSS/μCELL instrument for real-time fluorescence is used for signal recording, wherein excitation wavelength was 480 nm, emission wavelength was 540 nm, and signals were recorded 1 times per second, after baseline was recorded for 10 seconds, the addition of 20 μL/well stimulation buffer was started, and then the signal was continuously record until the end of 180 seconds.
loading buffer: 10 mL/plate, the preparation method was as follows:
Test buffer sample: 100 mL/plate, the preparation method was as follows:
Stimulation buffer: 5 mL/plate, the preparation method was as follows:
The above buffer was from a commercially available kit, the kit name was FluxOR potassium ion channel assay, the manufacturer's brand was Invitrogen, the article number was F10017, the lot number was 913728.
20 mM DMSO compound mother liquor was prepared, 10 μL of 20 mM compound mother liquor was took and added into 20 μL DMSO solution, serially diluted 3 times to 8 intermediate concentrations; then the middle concentration of the compound was took to the test buffer, 200 times dilution to get the final concentration to be tested, 80 μL was took and added to the test plate.
The highest test concentration was 100 μM, followed by […], 33.33, 11.11, 3.70, 1.23, 0.41, 0.137, 0.045 μM, total 8 concentrations. Each concentration 3 replicate holes.
This concentration of DMSO had no effect on the KCNQ2 potassium channel.
Experimental data was analyzed by Excel 2007 and GraphPad Prism 5.0 software, and the ratio of 180 seconds was calculated to calculate the excitement effect. The excitement effect of the compound is calculated by the following formula: […]
Environment: Temperature about 25° C.
Reagent: FluxOR™ Detection Kit (Invitrogen, Cat #[…])
The experimental data in the report might meet the following criteria: Z′ Factor>0.5
2. Determination Results: See Table 1 for Details, where the Smaller EC50 was, the Higher the Activity of the Corresponding Compound was.
References for the above test methods:
(2) Jinfeng Yue et al. Acta Pharmacologica Sinica, 2016, 37:105-110.

Data set [4] in a line: Pharmacokinetic study of compound 03058 in male ICR mice. It counts as in vivo. Here is the method:
Pharmacokinetic Study of Compound 03058
1) Research purpose: To obtain the pharmacokinetic characteristics of compound 03058 in male ICR mice
6 healthy male ICR mice (body weight range of 18-22 grams) were taken, divide them into 2 groups (3 mice/group, and 3 mice/time point), fasted for more than 12 hours (only oral administration group), and administered intravenously(0.05 mg/kg), orally (1 mg/kg), at time points of 0.083 (intravenous administration only), 0.25, 0.5, 1, 2, 4, 6 (only oral administration). After 8 and 24 h, blood were collected by cardiac puncture. At least 0.3 mL of whole blood was transferred to the EDTA-K2 anticoagulation tube, and within half an hour, the plasma was collected by centrifugation (6000 rpm, 8 minutes, 4° C.), and frozen at −20° C. for use. (Compound configuration: 5% DMAC+10% Solutol HS 15+85% Saline was used to prepare a solution having a concentration of iv 0.01 mg/mL and po 0.1 mg/mL).
as §4

Data set [5] can be described thus: Cerebral blood ratio of compound A in previous studies. It counts as in vivo. The conditions noted are these: brain/blood. The source says:
It can be seen from the results in Table 4 that after oral administration of compounds 03043 and 03044 to male SD rats, they have a good cerebral blood ratio (1.0-2.4) at each time point.

The mark [6] stands for this setting: brain, read-out: Brain concentration.
The mark [7] stands for this setting: plasma, read-out: Plasma concentration.
The mark [8] stands for this setting: mouse, Intravenous 0.05 mg/kg, plasma.
Where [9] appears, read: mouse, po, Gavage 1 mg/kg, plasma.

Chain of KCNQ2 potassium channel (CHO-KCNQ2 cells) (O43526 whole entry): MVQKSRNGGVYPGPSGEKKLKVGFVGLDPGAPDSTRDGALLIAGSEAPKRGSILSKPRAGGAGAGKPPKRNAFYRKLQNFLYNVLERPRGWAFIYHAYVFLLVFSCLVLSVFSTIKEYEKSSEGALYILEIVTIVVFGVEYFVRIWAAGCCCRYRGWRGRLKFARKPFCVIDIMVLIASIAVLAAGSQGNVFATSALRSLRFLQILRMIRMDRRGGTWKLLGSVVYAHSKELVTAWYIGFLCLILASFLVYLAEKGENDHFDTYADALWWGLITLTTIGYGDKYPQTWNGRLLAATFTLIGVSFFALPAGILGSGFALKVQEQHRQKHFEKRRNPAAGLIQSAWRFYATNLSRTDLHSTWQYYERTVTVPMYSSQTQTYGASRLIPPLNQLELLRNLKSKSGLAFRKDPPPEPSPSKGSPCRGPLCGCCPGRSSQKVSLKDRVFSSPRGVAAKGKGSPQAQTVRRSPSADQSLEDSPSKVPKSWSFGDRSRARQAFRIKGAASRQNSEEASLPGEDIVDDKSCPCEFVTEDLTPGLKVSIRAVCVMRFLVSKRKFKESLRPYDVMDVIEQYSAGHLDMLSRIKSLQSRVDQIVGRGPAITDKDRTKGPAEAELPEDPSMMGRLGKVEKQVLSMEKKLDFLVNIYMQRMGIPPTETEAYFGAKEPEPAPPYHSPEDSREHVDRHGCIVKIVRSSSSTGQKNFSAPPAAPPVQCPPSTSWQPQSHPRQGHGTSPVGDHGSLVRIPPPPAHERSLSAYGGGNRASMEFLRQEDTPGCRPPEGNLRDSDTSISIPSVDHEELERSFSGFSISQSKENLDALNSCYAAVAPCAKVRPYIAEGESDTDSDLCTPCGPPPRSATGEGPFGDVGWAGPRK

`Cc1cc(N2CCCc3sc(Cl)cc3C2)cc(C)c1NC(=O)CC(C)(C)C` [Compound 03043, N-(4-(2-chloro-4,6,7,8-tetrahydro-5H-thieno[3,2-c]azepin-5-yl)-2,6-dimethylphenyl)-3,3-dimethylbutanamide]: the F in data set [1] (Gavage 5 mg/kg) is given as 12.79%. In addition, in data set [1] (Intravenous 1 mg/kg), the total exposure AUC(0-inf) (as a rule, the area under the concentration-time curve extrapolated to infinity) came out at 964 ng·h/mL; the area under the curve AUC(0-t) – broadly, the area under the concentration-time curve up to a stated or last time point – amounted to 957 ng·h/mL; the highest concentration (Cmax) (as a rule, the maximum level reached in the sampled fluid or tissue) was 2040 ng/mL; the half-life – broadly, how long it takes for the measured level to halve – is 1.42 h. Moreover, in data set [1] (po, Gavage 5 mg/kg), the AUC(0-inf) was found to be 1110 ng·h/mL, the AUC(0-t) came to 612 ng·h/mL, the highest level (Cmax) was 129 ng/mL and the Tmax (usually the time from dosing to the highest level) worked out at 0.25 h. In data set [1] (po, Gavage 5 mg/kg), the half-life was 12.3 h. Further, in data set [2] (setting [6]), the concentration at 1 h was 67.1 ng/g, the concentration at 4 h was 65.7 ng/g and the concentration at 8 h was determined as 20 ng/g. In data set [2], the Kp (commonly tissue or fluid exposure divided by exposure in the circulation) lay in the range of 1 to 2.4, the Kp at 1 h amounted to 2.4, the Kp at 4 h is 1.5 and the concentration ratio (Kp) at 8 h came out at 1. For the same compound, in data set [2] (setting [7]), the concentration at 1 h worked out at 32.2 ng/mL, the concentration at 4 h was 47.9 ng/mL and the concentration at 8 h was 20.8 ng/mL. For the same compound, in data set [3], the “increase of activity versus 6-membered ring comparison compound (ratio of EC50)” value was “about 2.83 times” and the pEC50 – broadly, −log10 of the EC50, conventionally taken in molar units – is 7.64.
Compound `Cc1cc(N2CCCc3cc(Cl)sc3C2)cc(C)c1NC(=O)CC(C)(C)C` [Compound 03044, N-(4-(2-chloro-4,5,6,8-tetrahydro-7H-thieno[2,3-c]azepin-7-yl)-2,6-dimethylphenyl)-3,3-dimethylbutanamide] yielded a F in data set [1] (Gavage 5 mg/kg) of 13.9%. For the same compound, in data set [1] (Intravenous 1 mg/kg), the total exposure AUC(0-inf) is 1060 ng·h/mL, the AUC(0-t) is 1040 ng·h/mL, the peak level (Cmax) was 1740 ng/mL and the half-life is 1.8 h. Moreover, in data set [1] (po, Gavage 5 mg/kg), the total exposure AUC(0-inf) was 889 ng·h/mL, the AUC(0-t) was 723 ng·h/mL, the Cmax worked out at 118 ng/mL and the time of peak concentration (Tmax) is 0.67 h. Also, the half-life in data set [1] (po, Gavage 5 mg/kg) was 7.08 h. In data set [2] (setting [6]), the concentration at 1 h was 251 ng/g, the concentration at 4 h was 102 ng/g and the concentration at 8 h worked out at 67.6 ng/g. Moreover, in data set [2], the Kp lay within 1 to 2.4, the concentration ratio (Kp) at 1 h was found to be 2.2, the Kp at 4 h came to 2.1 and the Kp at 8 h came to 1.7. Besides, in data set [2] (setting [7]), the concentration at 1 h was determined as 112 ng/mL, the concentration at 4 h was determined as 50.2 ng/mL and the concentration at 8 h turned out to be 41.3 ng/mL. In addition, the pEC50 in data set [3] was 7.24.
For the compound `Cc1cc(N2CCOc3cc(F)ccc3C2)cc(C)c1NC(=O)CC(C)(C)C` [Compound 03058, N-(4-(8-fluoro-2,3-dihydrobenzo[f][1,4]oxazepin-4(5H)-yl)-2,6-dimethylphenyl)-3,3-dimethylbutanamide], in data set [3], the “increase of activity versus 6-membered ring comparison compound (ratio of EC50)” value came to 12.25 times and the negative logarithm of the EC50 (pEC50) was 8.10. In data set [4] (Gavage 1 mg/kg), this compound gave an F of 30.47%. In data set [4] (setting [8]), the AUC(0-inf) was determined as 7.2 ng·h/mL, the AUC(0-t) was found to be 7.2 ng·h/mL, the Cmax is 15.1 ng/mL and the half-life was 0.73 h. In addition, in data set [4] (setting [9]), the AUC(0-inf) amounted to 43.6 ng·h/mL, the AUC(0-t) came to 43.6 ng·h/mL, the peak level (Cmax) was 17 ng/mL and the time to peak (Tmax) was found to be 0.5 h. The half-life in data set [4] (setting [9]) was 1.05 h.
Regarding `Cc1cc(N2CCc3sc(Cl)cc3C2)cc(C)c1NC(=O)CC(C)(C)C` [Compound A], the pEC50 in data set [3] is 7.19. Moreover, the concentration ratio (Kp) at 2 h in data set [5] (at 2 h) amounted to 0.56. Moreover, in data set [5] (at 4 h), the Kp at 4 h was found to be 0.46. The concentration ratio (Kp) in data set [5] (overall) is approximately 0.5.
